Data published in patent US20070173488A1, “Pyrazolothiazole Protein Kinase Modulators” (SGX Pharmaceuticals, Inc., priority 2005, published 2007).

Legend:
AurA = molecular target: T1, AurA (Homo sapiens, UniProt O14965); test: AurA Luminescence-based Enzyme Assay (Kinase-Glo); assay type: biochemical
T1 construct: made in house; host or cells: Sf9 insect cells
T1 sequence (O14965 1-403): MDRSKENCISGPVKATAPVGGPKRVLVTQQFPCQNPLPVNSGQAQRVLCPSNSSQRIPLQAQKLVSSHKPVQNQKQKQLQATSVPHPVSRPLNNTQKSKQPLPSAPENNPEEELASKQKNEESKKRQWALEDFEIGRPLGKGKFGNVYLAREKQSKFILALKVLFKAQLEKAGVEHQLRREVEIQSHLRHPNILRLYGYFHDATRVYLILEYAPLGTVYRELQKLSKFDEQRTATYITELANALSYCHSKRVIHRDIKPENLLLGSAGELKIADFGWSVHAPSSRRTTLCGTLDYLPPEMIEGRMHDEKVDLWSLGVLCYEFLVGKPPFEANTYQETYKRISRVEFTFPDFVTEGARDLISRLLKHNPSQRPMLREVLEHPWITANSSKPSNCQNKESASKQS
Description: Homogeneous luminescence-based inhibitor screening assays were developed for c-Abl, MET, AurA, and PDK1 kinases (among others). Each of these assays made use of an ATP depletion assay (Kinase-Glo™, Promega Corporation, Madison, Wis.) to quantitate kinase activity. The Kinase-Glo™ format uses a thermostable luciferase to generate luminescent signal from ATP remaining in solution following the kinase reaction. The luminescent signal is inversely correlated with the amount of kinase activity.
Dose response was analyzed using the equation: y=min+{(max−min)/(1 +10^[compound]-logIC50)}, where y is the observed initial slope, max=the slope in the absence of inhibitor, min=the slope at infinite inhibitor, and the IC50 is the [compound] that corresponds to ½ the total observed amplitude (Amplitude=max−min).
The Sf9 insect cell pellets (˜18 g) produced from 6 L of cultured cells expressing human Aurora-2 were resuspended in 50 mM Na Phosphate pH 8.0, 500 mM NaCl, 10% glycerol, 0.2% n-octyl-β-D-glucopyranoside (BOG) and 3 mM β-Mercaptoethanol (BME). One tablet of Roche Complete, EDTA-free protease inhibitor cocktail (Cat# 1873580) and 85 units Benzonase (Novagen Cat#70746-3)) were added per 1 L of original culture. Pellets were resuspended in approximately 50 ml per 1 L of original culture and were then sonicated on ice with two 30-45 sec bursts (100% duty cycle). Debris was removed by centrifugation and the supernatant was passed through a 0.8 μm syringe filter before being loaded onto a 5 ml Ni^2+ HiTrap column (Pharmacia). The column was washed with 6 column volumes of 50 mM Na Phosphate pH 8.0, 500 mM NaCl, 10% glycerol, 3 mM BME. The protein was eluted using a linear gradient of the same buffer containing 500 mM Imidazole. The eluant (24 ml) was cleaved overnight at 4° C. in a buffer containing 50 mM Na Phosphate pH 8.0, 500 mM NaCl, 10% glycerol, 3 mM BME and 10,000 units of TEV (Invitrogen Cat#10127-017). The protein was passed over a second nickel affinity column as described above; the flow-through was collected. The cleaved protein fractions were combined and concentrated using spin concentrators. Further purification was done by gel filtration chromatography on a S75 sizing column in 50 mM Na Phosphate (pH 8.0), 250mM NaCl, 1 mM EDTA, 0.1 mM AMP-PNP or ATP buffer, and 5 mM DTT. The cleanest fractions were combined and concentrated to approximately 8-11 mg/ml, and were either flash frozen in liquid nitrogen in 120 μl aliquots and stored at −80° C., or stored at 4° C.
AurA Luminescence-based Enzyme Assay
Materials: Kemptide peptide substrate=LRRASLG (Biopeptide, San Diego, Calif.), ATP (Sigma Cat#A-3377, FW=551), HEPES buffer, pH 7.5, 10% Brij 35 (Calbiochem Cat# 203728), MgCl2, Staurosporine (Streptomyces sp. Sigma Cat#85660-1MG), white Costar 384-well flat -bottom plate (VWR Cat#29444-088), Autophosphorylated AurA kinase (see below), Kinase-Glo™ (Promega Cat#V6712).
Stock Solutions: 10 mM Kemptide peptide (7.72 mg/ml in water), stored at −20° C.; 100 mM HEPES buffer +0.015% Brij 35, pH 7.5 (5 ml 1M HEPES stock +75 μL 10% Brij 35+45 ml miliQH2O); 10 mM ATP (5.51 mg/ml in dH2O) stored at −20° C. (diluted 50 μl into total of 10 ml miliQH2O daily=50 μM ATP working stock); 100 mM MgCl2; 200 μM Staurosporine, 2× Kinase-Glo™ reagent (made fresh or stored at −20° C.).
AurA Autophosphorylation Reaction: ATP and MgCl2 were added to 1-5 mg/ml AurA at final concentrations of 10 mM and 100 mM, respectively. The autophosphorylation reaction was incubated at 21° C. for 2-3 h. The reaction was stopped by the addition of EDTA to a final concentration of 50 mM, and samples were flash frozen with liquid N2 and stored at −80° C.
Standard Assay Setup for 384-well format (20 μl kinase reaction, 40 μL detection reaction): 10 mM MgCl2; 0.2mM Kemptide peptide; 1 μl test compound (in DMSO); 0.3 μg/ml Autophosphorylated AurA kinase; 10 μM ATP; 100 mM HEPES+0.015% Brij buffer. Positive controls contained DMSO with no test compound. […]

GTL16 cells = test: 96-well XTT cell survival assay (GTL16 cells); assay type: cell-based; conditions: Homo sapiens, GTL 16, 72 hours
Description: GTL16 cells were maintained in DMEM Medium supplemented with 10% fetal bovine serum (FBS) 2 mM L-Glutamine and 100 units penicillin/100 μg streptomycin, at 37° C. in 5% CO2.
Compounds were tested in the following assays in duplicate.
96-well XTT assay (GLT16 cells): One day prior to assay the growth media was aspirated off and assay media was added to cells. On the day of the assay, the cells were grown in assay media containing various concentrations of compounds (duplicates) on a 96-well flat bottom plate for 72 hours at 37° C. in 5% CO2. The starting cell number was 5000 cells per well and volume was 120 μl. At the end of the 72-hour incubation, 40 μl of XTT labeling mixture (50:1 solution of sodium 3′-[1-(phenylaminocarbonyl)-3,4-tetrazolium]-bis (4-methoxy-6-nitro) benzene sulfonic acid hydrate and Electron-coupling reagent: PMS (N-methyl dibenzopyrazine methyl sulfate) were added to each well of the plate. After an additional 5 hours of incubation at 37° C., the absorbance reading at 450 nm with a background correction of 650 nm was measured with a spectrophotometer.

SMILES | IC50 (AurA) | IC50 (GTL16 cells)
O=C(Nc1nc2[nH]nc(-n3cncc3-c3ccccn3)c2s1)C1CC1 [Cyclopropanecarboxylic acid [3-(5-pyridin-2-yl-imidazol-1-yl)-1H-pyrazolo[3,4-d]thiazol-5-yl]-amide] | > 10000 nM | –
O=C(Nc1cc[nH]n1)Nc1nc2[nH]nc(-n3cncc3-c3ccccc3Cl)c2s1 [1-{3-[5-(2-Chloro-phenyl)-imidazol-1-yl]-1H-pyrazolo[3,4-d]thiazol-5-yl}-3-(1H-pyrazol-3-yl)-urea] | 1000 to 10000 nM | < 100 nM
O=C(Nc1nc2[nH]nc(-n3cncc3-c3ccccc3)c2s1)C1CC1 [Cyclopropanecarboxylic acid [3-(5-phenyl-imidazol-1-yl)-1H-pyrazolo[3,4-d]thiazol-5-yl]-amide] | 1000 to 10000 nM | 1000 to 10000 nM
O=C(Nc1nc2[nH]nc(-n3cncc3-c3cc(Cl)cc(Cl)c3Cl)c2s1)C1CC1 [Cyclopropanecarboxylic acid {3-[5-(2,3,5-trichloro-phenyl)-imidazol-1-yl]-1H-pyrazolo[3,4-d]thiazol-5-yl}-amide] | 100 to 1000 nM | –
O=C(Nc1nc2[nH]nc(-n3cncc3-c3ccc4ccccc4c3)c2s1)C1CC1 [Cyclopropanecarboxylic acid [3-(5-naphthalen-2-yl-imidazol-1-yl)-1H-pyrazolo[3,4-d]thiazol-5-yl]-amide] | 1000 to 10000 nM | –

Second part, led by results:

IC50 (AurA) | SMILES | IC50 (GTL16 cells)
< 100 nM | O=C(Nc1nc2[nH]nc(-n3cncc3-c3c(Cl)cccc3Cl)c2s1)C1CC1 [Cyclopropanecarboxylic acid {3-[5-(2,6-dichloro-phenyl)-imidazol-1-yl]-1H-pyrazolo[3,4-d]thiazol-5-yl}-amide] | < 100 nM
100 to 1000 nM | NC(=O)COc1ccc(-c2cncn2-c2n[nH]c3nc(NC(=O)C4CC4)sc23)c(Cl)c1 [Cyclopropanecarboxylic acid {3-[5-(4-carbamoylmethoxy-2-chloro-phenyl)-imidazol-1-yl]-1H-pyrazolo[3,4-d]thiazol-5-yl}-amide] | –
100 to 1000 nM | CS(=O)(=O)c1ccc(F)cc1-c1cncn1-c1n[nH]c2nc(NC(=O)C3CC3)sc12 [Cyclopropanecarboxylic acid {3-[5-(5-fluoro-2-methanesulfonyl-phenyl)-imidazol-1-yl]-1H-pyrazolo[3,4-d]thiazol-5-yl}-amide] | –
1000 to 10000 nM | O=C(Nc1nc2[nH]nc(-n3cncc3-c3cccc(F)c3F)c2s1)C1CC1 [Cyclopropanecarboxylic acid {3-[5-(2,3-difluoro-phenyl)-imidazol-1-yl]-1H-pyrazolo[3,4-d]thiazol-5-yl}-amide] | 1000 to 10000 nM
> 10000 nM | COc1ccc2nc(Cl)c(-c3cncn3-c3n[nH]c4nc(NC(=O)C5CC5)sc34)cc2c1 [Cyclopropanecarboxylic acid {3-[5-(2-chloro-6-methoxy-quinolin-3-yl)-imidazol-1-yl]-1H-pyrazolo[3,4-d]thiazol-5-yl}-amide] | –
< 100 nM | O=C(Nc1nc2[nH]nc(-n3cncc3-c3ccccc3Cl)c2s1)C1CC1 [Cyclopropanecarboxylic acid {3-[5-(2-chloro-phenyl)-imidazol-1-yl]-1H-pyrazolo[3,4-d]thiazol-5-yl}-amide] | 100 to 1000 nM
< 100 nM | O=C(Nc1nc2[nH]nc(-n3cncc3-c3c(Cl)ccc(Cl)c3Cl)c2s1)C1CC1 [Cyclopropanecarboxylic acid {3-[5-(2,3,6-trichloro-phenyl)-imidazol-1-yl]-1H-pyrazolo[3,4-d]thiazol-5-yl}-amide] | 100 to 1000 nM
